According to patent US20240343704A1, “HALO-SUBSTITUTED AMINO PYRIDINE COMPOUNDS AS INHIBITORS OF THE HAEMATOPOIETIC PROGENITOR KINASE 1 (HPK1)” (priority 2021, published 2024):

Each compound was assayed against T1, Recombinant (1-346) HPK1 (h) (Homo sapiens, UniProt Q92918) (assay: HPK1 Human STE Kinase Enzymatic Radiometric Assay). Conditions: read-out: HPK1 IC50 nM Range*.
T1 construct: Recombinant (1-346) HPK1 (h) is incubated with 8 mM MOPS pH 7.0
T1 sequence (Q92918 1-346): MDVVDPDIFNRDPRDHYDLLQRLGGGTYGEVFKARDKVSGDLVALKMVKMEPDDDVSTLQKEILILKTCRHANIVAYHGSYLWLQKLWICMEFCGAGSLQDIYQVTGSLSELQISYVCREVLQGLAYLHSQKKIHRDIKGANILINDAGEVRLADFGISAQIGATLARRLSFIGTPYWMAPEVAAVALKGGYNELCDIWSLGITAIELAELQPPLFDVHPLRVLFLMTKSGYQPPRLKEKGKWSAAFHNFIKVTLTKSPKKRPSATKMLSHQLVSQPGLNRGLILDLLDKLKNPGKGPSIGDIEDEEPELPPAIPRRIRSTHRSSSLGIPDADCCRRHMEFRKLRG
Type: biochemical
Experimental: A stock solution of 10 mM of test compound is prepared in DMSO. The compound plate was prepared by 3-fold and 9-point serial dilutions. […] The reaction is initiated by The addition of the Mg/ATP mix. After incubation for 40 minutes at RT, the reaction is stopped by the addition of phosphoric acid to a concentration of 0.5%.

Structure (SMILES) | IC50 [nM]
CN1CCN(c2ccc(-c3cnc(N)c(-c4ccc5c(c4)CCNC5=O)c3F)cc2)CC1 [I-1, 6-(2-amino-4-fluoro-5-(4-(4-methylpiperazin-1-yl)phenyl)pyridin-3-yl)-3,4-dihydroisoquinolin-1(2H)-one] | 11 to 100
CC(C)N1CCN(c2ccc(-c3cc(-c4cc(F)c5c(c4)CNC5=O)c(N)nc3F)cc2)CC1 [I-637, 5-(2-amino-6-fluoro-5-(4-(4-isopropylpiperazin-1-yl)phenyl)pyridin-3-yl)-7-fluoroisoindolin-1-one] | 11 to 100
Cn1cnnc1CC1(c2cccc(-c3cc(-c4ccc5c(c4)CCNC5=O)c(N)nc3F)c2)COC1 [I-638, 6-(2-amino-6-fluoro-5-(3-(3-((4-methyl-4H-1,2,4-triazol-3-yl)methyl)oxetan-3-yl)phenyl)pyridin-3-yl)-3,4-dihydroisoquinolin-1(2H)-one] | 101 to 1000
CC(C)N1CCN(c2ccc(-c3ccc(Nc4ccc5c(c4)CCNC5=O)nc3F)cc2)CC1 [I-639, 6-((6-fluoro-5-(4-(4-isoproylpiperazin-1-yl)phenyl)pyridin-2-yl)amino)-3,4-dihydroisoquinolin-1(2H)-one] | > 1000
Nc1nc(F)c(-c2ccc(N3CCN(CC4CC4(F)F)CC3)cc2)cc1-c1ccc2c(c1)CCNC2=O (stereo not drawn) [I-640, 6-(2-amino-5-(4-(4-((2,2-difluorocyclopropyl)methyl)piperazin-1-yl)phenyl)-6-fluoropyridin-3-yl)-3,4-dihydroisoquinolin-1(2H)-one] | 0.1 to 10
Nc1nc(F)c(-c2ccc(N3CCN(CCCC(F)F)CC3)cc2)cc1-c1ccc2c(c1)CCNC2=O [I-641, 6-(2-amino-5-(4-(4-(4,4-difluorobutyl)piperazin-1-yl)phenyl)-6-fluoropyridin-3-yl)-3,4-dihydroisoquinolin-1(2H)-one] | 0.1 to 10
CN1CCC[C@H]1c1cc(-c2cc(-c3ccc4c(c3)CCNC4=O)c(N)nc2F)ccc1C1CCOCC1 [I-642, (S)-6-(2-amino-6-fluoro-5-(3-(1-methylpyrrolidin-2-yl)-4-(tetrahydro-2H-pyran-4-yl)phenyl)pyridin-3-yl)-3,4-dihydroisoquinolin-1(2H)-one] | 11 to 100
Cc1nc2cc(-c3cc(-c4ccc(C5CCOCC5)c([C@@H]5CCCN5)c4)c(F)nc3N)ccc2c(=O)[nH]1 [I-643, (S)-7-(2-amino-6-fluoro-5-(3-(pyrrolidin-2-yl)-4-(tetrahydro-2H-pyran-4-yl)phenyl)pyridin-3-yl)-2-methylquinazolin-4(3H)-one] | 11 to 100
Nc1nc(F)c(-c2ccc(N3CCN(CCC4CC4(F)F)CC3)cc2)cc1-c1ccc2c(c1)CCNC2=O (stereo not drawn) [I-644, 6-(2-amino-5-(4-(4-(2-(2,2-difluorocyclopropyl)ethyl)piperazin-1-yl)phenyl)-6-fluoropyridin-3-yl)-3,4-dihydroisoquinolin-1(2H)-one] | 0.1 to 10
CN(C)Cc1cc(-c2cc(-c3ccc4c(c3)CCNC4=O)c(N)nc2F)ccc1C1CCOCC1 [I-645, 6-(2-amino-5-(3-((dimethylamino)methyl)-4-(tetrahydro-2H-pyran-4-yl)phenyl)-6-fluoropyridin-3-y)-3,4-dihydroisoquinolin-1(2H)-one] | 0.1 to 10
Nc1nc(F)c(-c2cccc([C@@H]3CCCN3)c2)cc1-c1ccc2c(c1)CCNC2=O [I-646, (S)-6-(2-amino-6-fluoro-5-(3-(pyrrolidin-2-yl)phenyl)pyridin-3-yl)-3,4-dihydroisoquinolin-1(2H)-one] | 0.1 to 10

Each compound was assayed against Lck (h) (Homo sapiens, UniProt P06239) (assay: Lck Human  Kinase Enzymatic Radiometric Assay). Conditions: ratio of Lck IC50 to HPK1 IC50.
Sequence of Lck (h) (P06239 whole entry): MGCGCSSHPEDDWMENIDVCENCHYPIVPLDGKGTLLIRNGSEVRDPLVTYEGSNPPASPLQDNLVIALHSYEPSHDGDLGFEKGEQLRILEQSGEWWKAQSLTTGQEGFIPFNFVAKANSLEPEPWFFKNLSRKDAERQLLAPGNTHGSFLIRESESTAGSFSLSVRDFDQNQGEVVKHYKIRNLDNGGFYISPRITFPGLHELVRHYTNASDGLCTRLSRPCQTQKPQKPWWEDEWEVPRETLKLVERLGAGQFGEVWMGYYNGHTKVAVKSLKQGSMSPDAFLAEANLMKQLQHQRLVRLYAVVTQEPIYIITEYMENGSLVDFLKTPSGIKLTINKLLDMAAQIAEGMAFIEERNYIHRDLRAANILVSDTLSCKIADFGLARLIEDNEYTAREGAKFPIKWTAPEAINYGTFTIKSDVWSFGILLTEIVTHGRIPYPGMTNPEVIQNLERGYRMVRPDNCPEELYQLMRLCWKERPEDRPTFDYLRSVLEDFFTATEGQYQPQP
Type: biochemical
Experimental: Lck (h) is incubated with 50 mM Tris pH 7.5, 0.1 mM EGTA, 0.1 mM Na3VO4, 250 uM KVEKIGEGTYGVVYK (Cdc2 peptide), 10 mM MgAcetate and [gamma-33P]-ATP (specific activity and concentration as required). The reaction is initiated by the addition of the Mg/ATP mix. After incubation for 40 minutes at RT, the reaction is stopped by the addition of phosphoric acid to a concentration of 0.5%. 10 uL of the reaction is then spotted onto a P30 filtermat and washed four times for 4 minutes in 0.425% phosphoric acid and once in methanol prior to drying and scintillation counting. For more details on the kinase assay procedures see: Gao, Y. et. al.; Biochem J., 451 (2): 313-328, 2013.

Structure (SMILES) | LcK IC50/HPK IC50 selectivity
Nc1nc(F)c(-c2ccc(N3C[C@H]4COC[C@H]4C3)cc2)cc1-c1ccc2c(c1)CCNC2=O | 323
Nc1nc(F)c(-c2ccc(C3CCNCC3)cc2)cc1-c1ccc2c(c1)CCNC2=O [drawing 2673] | 1603
Nc1nc(F)c(-c2cnn(C3CCOCC3)c2)cc1-c1ccc2c(c1)CCNC2=O [drawing 2675] | 2000
Nc1nc(F)c(-c2ccc(N3CCCC3)cc2)cc1-c1ccc2c(c1)CCNC2=O [drawing 2677] | 769
Nc1nc(F)c(-c2ccc(N3CCCCC3)cc2)cc1-c1ccc2c(c1)CCNC2=O [drawing 2679] | 1250
Nc1nc(F)c(-c2ccc(N3C[C@@H]4CCO[C@@H]4C3)cc2)cc1-c1ccc2c(c1)CCNC2=O [drawing 2683] | 1429
Nc1nc(F)c(-c2ccc(N3CCNCC3)c(C(F)(F)F)c2)cc1-c1ccc2c(c1)CCNC2=O [drawing 2685] | 2580
Nc1nc(F)c(-c2ccc3c(c2)OCCCO3)cc1-c1ccc2c(c1)CCNC2=O [drawing 2687] | 1429
Nc1nc(F)c(-c2ccc(N3CCN4CCCC4C3)cc2)cc1-c1ccc2c(c1)CCNC2=O (stereo not drawn) [drawing 2689] | 1480
Nc1nc(F)c(-c2ccc(N3CCCN4CCCC4C3)cc2)cc1-c1ccc2c(c1)CCNC2=O (stereo not drawn) [drawing 2691] | 1073
Nc1nc(F)c(-c2ccc(C3CCNCC3)cc2)cc1-c1cc2c(cc1F)C(=O)NCC2 [drawing 2693] | 704
Nc1ncc(-c2ccc(C3CCNCC3)cc2)cc1-c1ccc2c(c1)CCNC2=O [reference compound] | 45
Nc1ncc(-c2cnn(C3CCOCC3)c2)cc1-c1ccc2c(c1)CCNC2=O [reference compound] | 0.2
Nc1ncc(-c2ccc(N3CCCC3)cc2)cc1-c1ccc2c(c1)CCNC2=O [reference compound] | 69
Nc1ncc(-c2ccc(N3CCCCC3)cc2)cc1-c1ccc2c(c1)CCNC2=O [reference compound] | 79
Nc1ncc(-c2ccc(N3C[C@H]4COC[C@H]4C3)cc2)cc1-c1ccc2c(c1)CCNC2=O [reference compound] | 51
Nc1ncc(-c2ccc(N3C[C@@H]4CCO[C@@H]4C3)cc2)cc1-c1ccc2c(c1)CCNC2=O [reference compound] | 34
Nc1ncc(-c2ccc(N3CCNCC3)c(C(F)(F)F)c2)cc1-c1ccc2c(c1)CCNC2=O [reference compound] | 145
Nc1ncc(-c2ccc3c(c2)OCCCO3)cc1-c1ccc2c(c1)CCNC2=O [reference compound] | 485
Nc1ncc(-c2ccc(N3CCN4CCCC4C3)cc2)cc1-c1ccc2c(c1)CCNC2=O (stereo not drawn) [reference compound] | 20
Nc1ncc(-c2ccc(N3CCCN4CCCC4C3)cc2)cc1-c1ccc2c(c1)CCNC2=O (stereo not drawn) [reference compound] | 92
Nc1ncc(-c2ccc(C3CCNCC3)cc2)cc1-c1cc2c(cc1F)C(=O)NCC2 [reference compound] | 27

Same assay, conditions: read-out: Lck IC50 nM Range*

Structure (SMILES) | IC50 [nM]
CN1CCN(c2ccc(-c3cnc(N)c(-c4ccc5c(c4)CCNC5=O)c3F)cc2)CC1 [I-1, 6-(2-amino-4-fluoro-5-(4-(4-methylpiperazin-1-yl)phenyl)pyridin-3-yl)-3,4-dihydroisoquinolin-1(2H)-one] | 101 to 1000
Nc1nc(F)c(-c2ccc(N3CCOCC3)cc2)cc1-c1ccc2c(c1)CCNC2=O [I-16, 6-(2-amino-6-fluoro-5-(4-morpholinophenyl)pyridin-3-yl)-3,4-dihydroisoquinolin-1(2H)-one] | > 1000
Nc1nc(F)c(-c2ccc(N3CCN(CCCC(F)F)CC3)cc2)cc1-c1cc2c(cc1F)C(=O)NCC2 [I-441, 6-(2-amino-5-(4-(4-(4,4-difluorobutyl)piperazin-1-yl)phenyl)-6-fluoropyridin-3-yl)-7-fluoro-3,4-dihydroisoquinolin-1(2H)-one] | > 1000
